{
  "source": "patent US6545040B1",
  "about": "“Method of lowering the blood pressure” (Janssen Pharmaceutica N.V., priority 1988, dated 2003)",
  "test_system": "spontaneous hypertensive rats",
  "test": "Blood pressure and heart rate in conscious spontaneous hypertensive rats after intraperitoneal injection",
  "format": "in vivo",
  "conditions": "alone",
  "method": "Adult spontaneous hypertensive rats (6 months of age) were anesthetized by ether inhalation. The femoral artery was dissected and cannulated, and the catheter was connected to a strain-gauge blood pressure transducer. When the animals were fully awake, they were restrained and the systolic and diastolic arterial blood pressure were continuously recorded. An observation period of at least 30 min preceded the administration of the test compound. All test compounds were dissolved in 20% polypropylene glycol and injected intraperitoneally. After administration of the test drug the systolic and diastolic arterial blood pressure and the heart rate were recorded during a period of 120 minutes.",
  "key": {"[1]": {"conditions": "1.25 mpk i.p., treated vs untreated animals"}},
  "data": [
    {"compound": "NNc1nncc2ccccc12", "note": "[Hydralazine, hydralazine]", "values": [
      {"measurement": "Δ% change in diastolic blood pressure (DBP), average 120 min", "setting": "0.63 mpk i.p.", "result": "−9.9", "unit": "%"},
      {"measurement": "Δ% change in heart rate (HR), average 120 min", "setting": "0.63 mpk i.p.", "result": "−1.45", "unit": "%"},
      {"measurement": "Δ% change in systolic blood pressure (SBP), average 120 min", "setting": "0.63 mpk i.p.", "result": "−7.5", "unit": "%"}
    ]},
    {"compound": "Cc1ccc(N(CC2=NCCN2)c2cccc(O)c2)cc1", "note": "[Phentolamine, phentolamine]", "values": [
      {"measurement": "Δ% change in diastolic blood pressure (DBP), average 120 min", "setting": "0.63 mpk i.p.", "result": "−13.1", "unit": "%"},
      {"measurement": "Δ% change in heart rate (HR), average 120 min", "setting": "0.63 mpk i.p.", "result": "+5.1%"},
      {"measurement": "Δ% change in systolic blood pressure (SBP), average 120 min", "setting": "0.63 mpk i.p.", "result": "−9.85", "unit": "%"}
    ]},
    {"compound": "O[C@@H](CNC[C@H](O)[C@H]1CCc2cc(F)ccc2O1)[C@@H]1CCc2cc(F)ccc2O1", "note": "[compound 1]", "values": [
      {"measurement": "Δ% change in diastolic blood pressure (DBP), average 120 min", "setting": "[1]", "result": "+2.1%"},
      {"measurement": "Δ% change in heart rate (HR), average 120 min", "setting": "[1]", "result": 0.5, "unit": "%"},
      {"measurement": "Δ% change in systolic blood pressure (SBP), average 120 min", "setting": "[1]", "result": 0, "unit": "%"},
      {"measurement": "Δ% change in diastolic blood pressure (DBP), average 120 min", "setting": "2.5 mpk i.p.", "result": 0, "unit": "%"},
      {"measurement": "Δ% change in heart rate (HR), average 120 min", "setting": "2.5 mpk i.p.", "result": 0, "unit": "%"},
      {"measurement": "Δ% change in systolic blood pressure (SBP), average 120 min", "setting": "2.5 mpk i.p.", "result": "−7", "unit": "%"}
    ]},
    {"compound": "CC(C)NCC(O)COc1ccc(CC(N)=O)cc1", "note": "(stereo not drawn) [Atenolol, atenolol]", "values": [
      {"measurement": "Δ% change in diastolic blood pressure (DBP), average 120 min", "setting": "10 mpk i.p.", "result": "+5.9%"},
      {"measurement": "Δ% change in heart rate (HR), average 120 min", "setting": "10 mpk i.p.", "result": "−28.1", "unit": "%"},
      {"measurement": "Δ% change in systolic blood pressure (SBP), average 120 min", "setting": "10 mpk i.p.", "result": "−3.7", "unit": "%"}
    ]},
    {"compound": "COc1cc2nc(N3CCN(C(=O)c4ccco4)CC3)nc(N)c2cc1OC", "note": "[Prazosin, prazosin]", "values": [
      {"measurement": "Δ% change in diastolic blood pressure (DBP), average 120 min", "setting": "0.01 mpk i.p.", "result": "−11.3", "unit": "%"},
      {"measurement": "Δ% change in heart rate (HR), average 120 min", "setting": "0.01 mpk i.p.", "result": "+1.6%"},
      {"measurement": "Δ% change in systolic blood pressure (SBP), average 120 min", "setting": "0.01 mpk i.p.", "result": "−10.9", "unit": "%"}
    ]},
    {"compound": "COCCc1ccc(OCC(O)CNC(C)C)cc1", "note": "(stereo not drawn) [Metoprolol, metoprolol]", "values": [
      {"measurement": "Δ% change in diastolic blood pressure (DBP), average 120 min", "setting": "10 mpk i.p.", "result": "+12.8%"},
      {"measurement": "Δ% change in heart rate (HR), average 120 min", "setting": "10 mpk i.p.", "result": "−16.6", "unit": "%"},
      {"measurement": "Δ% change in systolic blood pressure (SBP), average 120 min", "setting": "10 mpk i.p.", "result": "−1.2", "unit": "%"}
    ]},
    {"compound": "CC(C)NCC(O)COc1cccc2ccccc12", "note": "(stereo not drawn) [Propranolol, propranolol]", "values": [
      {"measurement": "Δ% change in diastolic blood pressure (DBP), average 120 min", "setting": "5 mpk i.p.", "result": "+12.4%"},
      {"measurement": "Δ% change in heart rate (HR), average 120 min", "setting": "5 mpk i.p.", "result": "−20.7", "unit": "%"},
      {"measurement": "Δ% change in systolic blood pressure (SBP), average 120 min", "setting": "5 mpk i.p.", "result": "−2", "unit": "%"}
    ]}
  ]
}
